From patent US20230133958A1, “COMPOUNDS USEFUL IN MODULATING EGFR AND PI3K” (Mekanistic Therapeutics LLC, priority 2021, published 2023)

Legend:
[1] = tested on: LOX IMVI; experiment: NCI COMPARE panel (SRB growth inhibition), LOX IMVI; type: cell-based; settings: Homo sapiens, Melanoma, 48 h
Description: (§1) The human tumor cell lines of the cancer screening panel are grown in RPMI 1640 medium containing 5% fetal bovine serum and 2 mM L-glutamine. For a typical screening experiment, cells are inoculated into 96 well microtiter plates in 100 µL at plating densities ranging from 5,000 to 40,000 cells/well depending on the doubling time of individual cell lines. After cell inoculation, the microtiter plates are incubated at 37° C., 5% CO2, 95% air and 100% relative humidity for 24 h prior to addition of experimental drugs.
(§2) After 24 h, two plates of each cell line are fixed in situ with TCA, to represent a measurement of the cell population for each cell line at the time of drug addition (Tz). Experimental drugs are solubilized in dimethyl sulfoxide at 400-fold the desired final maximum test concentration and stored frozen prior to use. […]
(§3) Following drug addition, the plates are incubated for an additional 48 h at 37° C., 5 % CO2, 95% air, and 100% relative humidity. […] Bound stain is subsequently solubilized with 10 mM trizma base, and the absorbance is read on an automated plate reader at a wavelength of 515 nm. […] Using the seven absorbance measurements [time zero, (Tz), control growth, (C), and test growth in the presence of drug at the five concentration levels (Ti)], the percentage growth is calculated at each of the drug concentrations levels. Percentage growth inhibition is calculated as: […]

[2] = tested on: PC-3; experiment: NCI COMPARE panel (SRB growth inhibition), PC-3; type: cell-based; settings: Homo sapiens; Prostate Cancer, PC-3, 48 h
Description: as §1, §2, §3

[3] = target: PI3Kα (Homo sapiens, UniProt P42336); experiment: Z'-LYTE / Adapta biochemical kinase assay, PI3Kα; settings: for inhibition at 0.1 µM: concentration of 100 nM/liter, read-out: Percent Inhibition of target enzymes, PI3K A
Description: The Z′-LYTE® biochemical assay employs a fluorescence-based, coupled-enzyme format and is based on the differential sensitivity of phosphorylated and non-phosphorylated peptides to proteolytic cleavage. The peptide substrate is labeled with two fluorophores—one at each end—that make up a FRET pair. In the primary reaction, the kinase transfers the gamma-phosphate of ATP to a single tyrosine, serine or threonine residue in a synthetic FRET-peptide. In the secondary reaction, a site-specific protease recognizes and cleaves non-phosphorylated FRET-peptides. Phosphorylation of FRET-peptides suppresses cleavage by the Development Reagent. Cleavage disrupts FRET between the donor (i.e., coumarin) and acceptor (i.e., fluorescein) fluorophores on the FRET-peptide, whereas uncleaved, phosphorylated FRET-peptides maintain FRET. A ratiometric method, which calculates the ratio (the Emission Ratio) of donor emission to acceptor emission after excitation of the donor fluorophore at 400 nm, is used to quantitate reaction progress.
A significant benefit of this ratiometric method for quantitating reaction progress is the elimination of well-to-well variations in FRET-peptide concentration and signal intensities. As a result, the assay yields very high Z′-factor values (>0.7) at a low percent phosphorylation.
Both cleaved and uncleaved FRET-peptides contribute to the fluorescence signals and therefore to the Emission Ratio. The extent of phosphorylation of the FRET-peptide can be calculated from the Emission Ratio. The Emission Ratio will remain low if the FRET-peptide is phosphorylated (i.e., no kinase inhibition) and will be high if the FRET-peptide is non-phosphorylated (i.e., kinase inhibition).
Enzyme: The ADAPTA universal kinase assay is a homogenous, fluorescent based immunoassay for the detection of ADP. In contrast to ATP depletion assays, the ADAPTA assay is extremely sensitive to ADP formation such that a majority of the signal change occurs in the first 10-20% conversion of ATP to ADP. This makes the ADAPTA universal kinase assay ideally suited for use with low activity kinases.
The principle of the ADAPTA universal kinase assay is outlined below. The assay itself can be divided into two phases: a kinase reaction phase, and an ADP detection phase. In the kinase reaction phase, all components required for the kinase reaction are added to the well, and the reaction is allowed to incubate for 60 minutes. After the reaction, a detection solution consisting of a europium labeled anti-ADP antibody, an Alexa Fluor® 647 labeled ADP tracer, and EDTA (to stop the kinase reaction) is added to the assay well. ADP formed by the kinase reaction (in the absence of an inhibitor) will displace the Alexa Fluor® 647 labeled ADP tracer from the antibody, resulting in a decrease in the TR-FRET signal. In the presence of an inhibitor, the amount of ADP formed by the kinase reaction is reduced, and the resulting intact antibody-tracer interaction results in a high TR-FRET signal.
Test Compounds: The Test Compounds are screened in 1% DMSO (final) in the well. For 10 point titrations, 3-fold serial dilutions are conducted from the starting concentration of the customer’s choosing.
Peptide/Kinase Mixtures: All Peptide/Kinase Mixtures are diluted to a 2X working concentration in the appropriate Kinase Buffer.
ATP Solution: All ATP Solutions are diluted to a 4X working concentration in Kinase Buffer (50 mM HEPES pH 7.5, 0.01% BRIJ-35, 10 mM MgCl2,1 mM EGTA). ATP Km apparent is previously determined using a Z′-LYTE® assay.
Development Reagent Solution: The Development Reagent is diluted in Development Buffer.
Assay Protocol: Bar-coded Corning, low volume NBS, black 384-wellplate (Corning Cat. #4514) 1. 2.5 µL - 4X Test Compound or 100 nL 100X plus 2.4 µL kinase buffer. 2. 5 µL - 2X Peptide/Kinase Mixture. 3. 2.5 µL - 4X ATP Solution. 4. 30-second plate shake. 5. 60-minute Kinase Reaction incubation at room temperature. 6. 5 µL - Development Reagent Solution. 7. […]

[4] = tested on: TK-10; experiment: NCI COMPARE panel (SRB growth inhibition), TK-10; type: cell-based; settings: Homo sapiens; Renal Cancer, TK-10, 48 h
Description: as §1, §2, §3

Sequence of PI3Kα (P42336 whole entry): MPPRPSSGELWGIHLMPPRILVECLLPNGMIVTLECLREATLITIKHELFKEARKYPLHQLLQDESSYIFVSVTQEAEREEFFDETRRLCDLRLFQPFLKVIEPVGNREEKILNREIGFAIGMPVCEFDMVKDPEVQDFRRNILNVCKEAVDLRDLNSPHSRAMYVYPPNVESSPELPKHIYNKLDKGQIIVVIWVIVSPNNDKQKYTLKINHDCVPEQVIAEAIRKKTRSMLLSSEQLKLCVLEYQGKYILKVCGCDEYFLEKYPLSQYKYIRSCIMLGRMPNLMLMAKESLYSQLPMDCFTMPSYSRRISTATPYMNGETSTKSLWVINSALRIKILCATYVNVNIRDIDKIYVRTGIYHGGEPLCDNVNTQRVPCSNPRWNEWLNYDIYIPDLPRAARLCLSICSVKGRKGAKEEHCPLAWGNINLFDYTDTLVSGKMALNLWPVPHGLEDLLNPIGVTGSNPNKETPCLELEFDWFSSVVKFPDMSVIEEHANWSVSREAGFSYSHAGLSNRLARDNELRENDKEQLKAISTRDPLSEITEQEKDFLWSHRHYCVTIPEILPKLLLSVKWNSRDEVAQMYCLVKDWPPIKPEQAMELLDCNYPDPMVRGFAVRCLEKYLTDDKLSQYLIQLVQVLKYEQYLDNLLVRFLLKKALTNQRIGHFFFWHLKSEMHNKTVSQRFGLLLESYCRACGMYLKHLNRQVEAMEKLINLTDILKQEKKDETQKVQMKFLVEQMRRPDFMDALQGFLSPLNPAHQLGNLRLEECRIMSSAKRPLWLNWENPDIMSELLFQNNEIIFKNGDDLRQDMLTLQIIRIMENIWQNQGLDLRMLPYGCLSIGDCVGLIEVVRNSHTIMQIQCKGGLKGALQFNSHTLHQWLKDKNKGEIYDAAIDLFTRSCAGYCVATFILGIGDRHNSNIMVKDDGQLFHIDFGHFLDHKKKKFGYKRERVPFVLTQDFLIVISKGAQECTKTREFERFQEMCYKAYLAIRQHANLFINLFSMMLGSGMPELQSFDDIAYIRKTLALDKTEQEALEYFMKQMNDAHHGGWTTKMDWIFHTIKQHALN
Sequence of PI3Kα (P27986 whole entry partner): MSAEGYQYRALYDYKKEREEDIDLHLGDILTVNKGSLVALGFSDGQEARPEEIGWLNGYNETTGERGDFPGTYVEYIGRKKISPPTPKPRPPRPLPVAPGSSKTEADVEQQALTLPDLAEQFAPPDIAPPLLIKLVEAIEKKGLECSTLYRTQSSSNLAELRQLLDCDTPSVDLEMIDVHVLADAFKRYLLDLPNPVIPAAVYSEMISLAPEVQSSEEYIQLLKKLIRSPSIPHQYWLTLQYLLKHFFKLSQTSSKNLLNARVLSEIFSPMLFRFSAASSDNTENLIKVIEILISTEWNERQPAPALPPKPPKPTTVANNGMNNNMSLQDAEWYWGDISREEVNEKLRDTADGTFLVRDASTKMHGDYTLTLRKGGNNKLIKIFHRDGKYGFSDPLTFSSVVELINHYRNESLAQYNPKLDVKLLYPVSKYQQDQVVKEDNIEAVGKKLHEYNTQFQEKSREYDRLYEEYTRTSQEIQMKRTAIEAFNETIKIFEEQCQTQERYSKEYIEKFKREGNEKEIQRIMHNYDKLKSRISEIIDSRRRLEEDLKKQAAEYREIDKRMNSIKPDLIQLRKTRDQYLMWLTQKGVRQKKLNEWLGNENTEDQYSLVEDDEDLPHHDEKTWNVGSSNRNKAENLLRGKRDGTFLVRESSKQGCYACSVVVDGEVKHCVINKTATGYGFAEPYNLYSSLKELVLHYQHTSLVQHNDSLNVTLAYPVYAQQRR

Structure (SMILES) | GI50 [1] | GI50 [2] | IC50 ([3]; PI3Kα) | inhibition at 0.1 µM [3] | GI50 [4]
CS(=O)(=O)Nc1cc(-c2ccc3ncnc(Nc4cccc(Cl)c4F)c3c2)cnc1Cl [Compound 6, N-[2-chloro-5-[4-(3-chloro-2-fluoro-anilino)quinazolin-6-yl]-3-pyridyl] methanesulfonamide] | 0.125 to 0.25 µM | 0.125 to 0.25 µM | ≤ 0.002 µM | > 90% | ≤ 0.075 µM
CS(=O)(=O)Nc1cc(-c2ccc3ncc(C#N)c(Nc4cccc(Cl)c4F)c3c2)cnc1Cl [Compound 10, N-[2-chloro-5-[4-(3-chloro-2-fluoro-anilino)-3-cyano-6-quinolyl]-3-pyridyl]methanesulfonamide] | 0.075 to 0.125 µM | 0.125 to 0.25 µM | – | > 90% | 0.075 to 0.125 µM
